Reference: patent publication US20170065520A1, “STABLE LIPOSOMAL FORMULATIONS OF RAPAMYCIN AND RAPAMYCIN DERIVATIVES FOR TREATING CANCER” (Manli International Ltd, priority 2015, published 2017)

Assay: In vitro drug release assay (dialysis tube, 50 kDal cut-off)
Type: physicochemical
Details: control formulation (drug in 15% acetonitrile and 85% water), within 48 h
Experimental: An in vitro drug release assay was used to determine release profiles of umirolimus, sirolimus, and everolimus. Umirolimus-loaded liposomes were prepared as described above in EXAMPLE 1, and sirolimus-loaded and everolimus-loaded liposomes were prepared as described above in EXAMPLE 4.
For each drug, a control formulation was prepared containing 1.0 mg of drug in 5 mL of a solution containing 15% acetonitrile and 85% water. 5 mL of the control formulations and the liposomal formulations for each drug were loaded into separate dialysis tubes having a molecular weight cut-off of 50 kDal.
Each loaded dialysis tube was placed in an individual 50 mL tube containing 40 mL of release media (15% acetonitrile and 0.5% SDS). The release media in each tube was sampled after 1, 2, 5, 7, 24, 30, and 48 h and the drug concentration in the release media was determined by HPLC as described above in EXAMPLE 1. The cumulative drug release percentage versus release time was plotted for all samples. The results are shown in FIGS. 1, 2, and 3 for umirolimus, everolimus, and sirolimus, respectively.

- starting amount of drug diffused out of the dialysis tubing: 67%
Substance: 40-alkoxyalkyl-rapamycin [umirolimus]
